According to the supplement of paper PMC11061612:

How the values were obtained:
[1] = test system: SHP-77 (Small Cell Lung Carcinoma); experiment: combination Emax (second highest fraction inhibited in the dose matrix, 72 h); higher = more inhibition; extreme values may be limits of the assay
How it was run: (§1)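 Bliss excess equals the observed combination effect minus the expected value EA + EB − EA·EB, where EA and EB are the effects of each agent alone. Combination Emax is the second-highest inhibition within the matrix. Inhibition was scaled from CellTiter-Glo 2.0 luminescence, with 0 set by vehicle wells and 1 by blank wells, after 72 hours of two-drug dosing of cells plated in 1536-well plates.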

[2] = test system: MKN45 (Gastric Carcinoma); experiment: as above
How it was run: as §1

[3] = test system: REH (B-Lymphoblastic Leukemia); experiment: as above
How it was run: as §1

[4] = test system: 23132-87 (Gastric Carcinoma); experiment: as above
How it was run: as §1

LN-229 (Glioblastoma) = experiment: as above
How it was run: as §1

[5] = test system: HCT-15 (Colorectal Carcinoma); experiment: as above
How it was run: as §1

[6] = test system: RERF-LC-Sq1 (Squamous Cell Lung Carcinoma); experiment: as above
How it was run: as §1

[7] = test system: NCI-H446 (Small Cell Lung Carcinoma); experiment: as above
How it was run: as §1

A2058 (Melanoma) = experiment: as above
How it was run: as §1

[8] = test system: RERF-GC-1B (Gastric Carcinoma); experiment: as above
How it was run: as §1

[9] = test system: PANC-03-27 (Pancreatic Carcinoma); experiment: as above
How it was run: as §1

[10] = test system: VAL (B-Cell Non-Hodgkin's Lymphoma); experiment: as above
How it was run: as §1

[11] = test system: OVMIU (Ovarian Carcinoma); experiment: as above
How it was run: as §1

[12] = test system: SK-PN-DW (Other Solid Carcinomas); experiment: as above
How it was run: as §1

[13] = test system: L-1236 (Hodgkin's Lymphoma); experiment: as above
How it was run: as §1

[14] = test system: HSC-39 (Gastric Carcinoma); experiment: as above
How it was run: as §1

[15] = test system: LXF-289 (Lung Adenocarcinoma); experiment: as above
How it was run: as §1

[16] = test system: COLO-680N (Esophageal Squamous Cell Carcinoma); experiment: Bliss excess, mean over the matrix (fraction); higher = more synergy
How it was run: as §1

[17] = test system: NCI-H23 (Lung Adenocarcinoma); experiment: as above
How it was run: as §1

[18] = test system: HEC-1 (Endometrial Carcinoma); experiment: as above
How it was run: as §1

Compound | combination Emax [1] | combination Emax [2] | combination Emax [3] | combination Emax [4] | combination Emax (LN-229 (Glioblastoma)) | combination Emax [5] | combination Emax [6] | combination Emax [7] | combination Emax (A2058 (Melanoma)) | combination Emax [8] | combination Emax [9] | combination Emax [10] | combination Emax [11] | combination Emax [12] | combination Emax [13] | combination Emax [14] | combination Emax [15] | Bliss excess [16] | Bliss excess [17] | Bliss excess [18]
CN(C)CCCOc1ccc(-c2ccc3ncc4c(c3c2)n(C2CCOCC2)c(=O)n4C)cn1 [AZD0156] + C=CCn1c(=O)c2cnc(Nc3ccc(N4CCN(C)CC4)cc3)nc2n1-c1cccc(C(C)(C)O)n1 [AZD1775] (first compound max 1 µM, partner max 1 µM) | 0.419 | 0.701 | 0.757 | 0.645 | 0.314 | 0.726 | 0.758 | 0.801 | 0.121 | 0.772 | 0.91 | 0.846 | 0.519 | 0.871 | 0.755 | 0.946 | 0.264 | -0.0252 | -0.0406 | -0.0257
CN(C)CCCOc1ccc(-c2ccc3ncc4c(c3c2)n(C2CCOCC2)c(=O)n4C)cn1 [AZD0156] + CCN(CCO)CCCOc1ccc2c(Nc3cc(CC(=O)Nc4cccc(F)c4)[nH]n3)ncnc2c1 [AZD2811] (first compound max 1 µM, 7x7, partner max 1 µM) | 0.237 | 0.342 | 0.481 | 0.118 | 0.123 | 0.317 | 0.306 | 0.838 | 0.0924 | 0.423 | 0.2 | 0.801 | 0.144 | 0.605 | 0.215 | 0.935 | 0.507 | -0.0404 | -0.0119 | -0.0152
CN(C)CCCOc1ccc(-c2ccc3ncc4c(c3c2)n(C2CCOCC2)c(=O)n4C)cn1 [AZD0156] + C[C@@H]1COCCN1C2=NC(=NC(=C2)C3(CC3)[S@](=N)(=O)C)C4=C5C=CNC5=NC=C4 [AZD6738] (first compound max 1 µM, 7x7, partner max 10 µM) | 0.665 | 0.791 | 0.625 | 0.873 | 0.54 | 0.915 | 0.843 | 0.779 | 0.225 | 0.491 | 0.862 | 0.911 | 0.396 | 0.928 | 0.634 | 1 | 0.573 | -0.0311 | -0.0218 | -0.004
CN(C)CCCOc1ccc(-c2ccc3ncc4c(c3c2)n(C2CCOCC2)c(=O)n4C)cn1 [AZD0156] + O=C(c1cc(Cc2n[nH]c(=O)c3ccccc23)ccc1F)N1CCN(C(=O)C2CC2)CC1 [Olaparib] (first compound max 3 µM, partner max 3 µM) | 0.209 | 0.356 | 0.457 | 0.644 | 0.107 | 0.378 | 0.418 | 0.362 | 0.37 | 0.317 | 0.225 | 0.542 | 0.347 | 0.289 | 0.326 | 0.413 | 0.4 | -0.0076 | 0.0049 | -0.0173
C=CCn1c(=O)c2cnc(Nc3ccc(N4CCN(C)CC4)cc3)nc2n1-c1cccc(C(C)(C)O)n1 [AZD1775] + C1CN(CCC1(C(=O)N[C@@H](CCO)C2=CC=C(C=C2)Cl)N)C3=NC=NC4=C3C=CN4 [Capivasertib] (first compound max 3 µM, partner max 3 µM) | 0.885 | 0.741 | 0.93 | 0.829 | 0.419 | 0.896 | 0.844 | 0.972 | 0.886 |  | 0.771 | 0.841 | 0.749 | 0.783 | 0.876 | 0.958 | 0.836 | 0.0133 | -0.0135 | -0.0424
C=CCn1c(=O)c2cnc(Nc3ccc(N4CCN(C)CC4)cc3)nc2n1-c1cccc(C(C)(C)O)n1 [AZD1775] + C[C@@H]1COCCN1C2=NC(=NC(=C2)C3(CC3)[S@](=N)(=O)C)C4=C5C=CNC5=NC=C4 [AZD6738] (first compound max 1 µM, partner max 10 µM) | 0.827 | 0.787 | 0.955 | 0.918 | 0.59 | 0.933 | 0.859 | 0.951 | 0.413 | 0.851 | 0.939 | 0.881 | 0.731 | 0.955 | 0.782 | 1 | 0.771 | 0.0196 | 0.0238 | 0.0694
C=CCn1c(=O)c2cnc(Nc3ccc(N4CCN(C)CC4)cc3)nc2n1-c1cccc(C(C)(C)O)n1 [AZD1775] + O=C(c1cc(Cc2n[nH]c(=O)c3ccccc23)ccc1F)N1CCN(C(=O)C2CC2)CC1 [Olaparib] (first compound max 1 µM, partner max 10 µM) | 0.443 | 0.775 | 0.835 | 0.605 | 0.258 | 0.443 | 0.675 | 0.778 | 0.284 | 0.693 | 0.928 | 0.816 | 0.569 | 0.913 | 0.746 | 0.988 | 0.355 | -0.0482 | -0.035 | 0.0039
CCN(CCO)CCCOc1ccc2c(Nc3cc(CC(=O)Nc4cccc(F)c4)[nH]n3)ncnc2c1 [AZD2811] + C=CCn1c(=O)c2cnc(Nc3ccc(N4CCN(C)CC4)cc3)nc2n1-c1cccc(C(C)(C)O)n1 [AZD1775] (first compound max 1 µM, partner max 1 µM) | 0.415 | 0.631 | 0.741 | 0.656 | 0.218 | 0.743 | 0.68 | 0.87 | 0.15 | 0.816 | 0.899 | 0.844 | 0.463 | 0.899 | 0.74 | 0.985 | 0.573 | -0.0147 | -0.0005 | 0.0124
CN(CCO)CC[C@H](CSc1ccccc1)Nc1ccc(S(=O)(=O)NC(=O)c2ccc(N3CCC([C@@H](O)c4ccccc4-c4ccc(Cl)cc4)CC3)cc2)cc1S(=O)(=O)C(F)(F)F [AZD4320] + C1CN(CCC1(C(=O)N[C@@H](CCO)C2=CC=C(C=C2)Cl)N)C3=NC=NC4=C3C=CN4 [Capivasertib] (first compound max 1 µM, 7x7, partner max 3 µM) |  | 0.456 | 1 | 0.221 | 0 | 0.174 | 0.667 | 0.78 | 0.191 | 0.496 | 0.25 | 1 | 0.876 | 0.482 | 0.965 | 0.328 | 0.173 | -0.0411 | -0.0273 | -0.0759
CS(=O)(=O)CCNCc1ccc(-c2ccc3ncnc(Nc4ccc(OCc5cccc(F)c5)c(Cl)c4)c3c2)o1 [Lapatinib] + Cn1cnc2c(F)c(Nc3ccc(Br)cc3Cl)c(C(=O)NOCCO)cc21 [Selumetinib] (first compound max 10 µM, 7x7, partner max 10 µM) | 0.387 | 0.635 | 0.237 |  |  |  |  |  |  |  | 0.812 | 0.597 | 0.671 | 0.556 | 0.712 | 0.99 |  | -0.0171 |  | 
CS(=O)(=O)CCNCc1ccc(-c2ccc3ncnc(Nc4ccc(OCc5cccc(F)c5)c(Cl)c4)c3c2)o1 [Lapatinib] + NC1(c2ccc(-c3nc4ccn5c(=O)[nH]nc5c4cc3-c3ccccc3)cc2)CCC1 [MK-2206] (first compound max 10 µM, 7x7, partner max 10 µM) | 0.633 | 0.617 | 0.957 |  | 0.207 |  |  | 0.962 | 0.982 | 0.943 | 0.76 | 0.898 | 0.891 | 0.933 | 0.888 | 0.933 |  | 0.0426 | -0.0481 | 
CCc1c2c(nc3ccc(O)cc13)-c1cc3c(c(=O)n1C2)COC(=O)[C@]3(O)CC [SN-38] + O=C(c1cc(Cc2n[nH]c(=O)c3ccccc23)ccc1F)N1CCN(C(=O)C2CC2)CC1 [Olaparib] (first compound max 0.3 µM, 7x7, partner max 10 µM) | 0.567 | 0.847 | 1 | 0.814 |  | 0.852 | 0.672 | 0.905 | 0.22 |  | 0.839 | 0.994 | 0.479 | 0.909 | 0.87 | 0.887 |  | 0.0012 |  | 0.0181
C[C@@H](c1ccc2nccn2c1)n1nnc2ncc(-c3cnn(C)c3)nc21 [Savolitinib] + CN(CC[C@H](CSC1=CC=CC=C1)NC2=C(C=C(C=C2)S(=O)(=O)NC(=O)C3=CC=C(C=C3)N4CCC(CC4)[C@H](C5=CC=CC=C5C6=CC=C(C=C6)Cl)O)S(=O)(=O)C(F)(F)F)CCO [AZD4320] (first compound max 1 µM, 7x7, partner max 1 µM) |  |  |  | 0.338 | 0.187 | 0.132 | 0.238 | 0.694 | 0.192 | 0.367 |  |  |  |  |  |  | 0.188 |  | 0.0248 | -0.027
